Reference: US20230099293A1, “OGA INHIBITOR COMPOUNDS” (priority 2019, published 2023)

Legend:
hOGA = target: T1, hOGA (Homo sapiens, UniProt O60502); experiment: OGA cellular assay (ICC detection of O-GlcNAcylated proteins in HEK293 cells inducible for P301L mutant human Tau); assay type: cell-based; set-up: Emax: dose or concentration left out as unconfirmed; settings: for EC50: Cellular hOGA; for Emax: HEK293, read-out: Cellular Emax (%)
T1 construct: endogenous in cells; host or cells: HEK293 cells inducible for P301L mutant human Tau (isoform 2N4R)
T1 sequence (O60502 1-916): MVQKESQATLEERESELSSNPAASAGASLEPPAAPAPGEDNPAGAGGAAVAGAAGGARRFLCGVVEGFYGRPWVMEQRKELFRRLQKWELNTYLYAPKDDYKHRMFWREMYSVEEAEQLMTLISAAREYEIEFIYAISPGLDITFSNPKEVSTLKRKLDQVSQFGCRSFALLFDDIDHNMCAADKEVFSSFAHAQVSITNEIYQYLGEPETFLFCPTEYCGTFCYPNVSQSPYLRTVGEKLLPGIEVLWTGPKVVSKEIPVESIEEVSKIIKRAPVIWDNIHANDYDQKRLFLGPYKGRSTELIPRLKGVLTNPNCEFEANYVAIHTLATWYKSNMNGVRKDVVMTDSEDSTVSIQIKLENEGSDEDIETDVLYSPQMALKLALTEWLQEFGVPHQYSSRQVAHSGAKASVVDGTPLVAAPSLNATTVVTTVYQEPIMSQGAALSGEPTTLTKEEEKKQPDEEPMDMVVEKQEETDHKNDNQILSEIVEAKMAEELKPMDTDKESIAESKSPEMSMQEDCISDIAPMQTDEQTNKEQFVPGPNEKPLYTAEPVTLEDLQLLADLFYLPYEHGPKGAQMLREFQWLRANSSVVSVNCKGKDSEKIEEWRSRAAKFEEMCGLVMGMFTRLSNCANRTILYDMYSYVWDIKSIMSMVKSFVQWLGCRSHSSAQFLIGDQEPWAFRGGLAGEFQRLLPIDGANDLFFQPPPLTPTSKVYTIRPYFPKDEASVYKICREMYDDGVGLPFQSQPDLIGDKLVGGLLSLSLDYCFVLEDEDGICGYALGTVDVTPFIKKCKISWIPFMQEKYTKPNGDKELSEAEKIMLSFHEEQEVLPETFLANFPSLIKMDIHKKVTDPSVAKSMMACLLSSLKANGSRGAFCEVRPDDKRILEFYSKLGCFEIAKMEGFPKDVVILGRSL
Summary of the method: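 HEK293 cells inducible for P301L Tau (2N4R), seeded in low-glucose medium, treated with compound for 6 h at 0.2% DMSO. After PFA fixation, O-GlcNAcylated proteins stained with CTD110.6 and imaged (488 nm intensity, 9 fields/well); Hoechst nuclei count for toxicity. IC50 by non-linear regression, Thiamet-G 200 μM as maximum.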

[1] = target: T2, recombinant human Meningioma Expressed Antigen 5 (MGEA5), also referred to as O-GlcNAcase (OGA) (Homo sapiens, UniProt O60502); experiment: OGA biochemical assay (inhibition of FM-GlcNAc hydrolysis, fluorescence); settings: for IC50: Enzymatic hOGA; for Emax: read-out: Enzymatic Emax (%)
T2 construct: Full length OGA enzyme was purchased at OriGene (cat #TP322411); purchased OriGene TP322411
T2 sequence (O60502 1-916): T1 sequence (O60502 1-916)
Summary of the method: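 Full-length recombinant OGA at 2 nM with 100 uM FM-GlcNAc in 200 mM citrate/phosphate buffer, 0.005% Tween-20. IC50 and Hill coefficient from curve fit between no-inhibitor and saturating standard-inhibitor controls.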

[2] = pEC50, Table 5, HEK293 P301L Tau cells, 6 hours incubation, O-GlcNAcylation readout
[3] = pIC50, Table 5, full length OGA 2 nM, FM-GlcNAc 100 uM, 6 h at room temperature
[4] = Table 5, HEK293 P301L Tau cells, 6 hours incubation, O-GlcNAcylation readout
[5] = second table, averaged values over several runs, obtained after recalibration of the equipment
[6] = Table 5, full length OGA 2 nM, FM-GlcNAc 100 uM, 6 h at room temperature
[7] = pEC50, second table, averaged values over several runs, obtained after recalibration of the equipment
[8] = pIC50, second table, averaged values over several runs, obtained after recalibration of the equipment

SMILES | EC50 (hOGA; [2]) [nM] | Emax (hOGA) [%] | melting point [°C] | IC50 [1, 3] [nM] | Emax [1] [%] | Cellular hOGA; pEC50 (hOGA; [4]) | Cellular hOGA; pEC50 (hOGA; [5]) | Enzymatic hOGA; pIC50 [1, 6] | Enzymatic hOGA; pIC50 [1, 5] | EC50 (hOGA; [7]) [nM] | IC50 [1, 8] [nM]
CCN(C)C(=O)Cn1cnc2c(Nc3c(C)cc(C(F)(F)F)cc3C)nccc21 [Compound 63, 2-[4-[2,6-Dimethyl-4-(trifluoromethyl)anilino]imidazo[4,5-c]pyridin-1-yl]-N-ethyl-N-methyl-acetamide] | 89.1 | 100 | 186.5 | 9.33 | 98 | – | – | – | – | – | –
Cc1cc(C(F)(F)F)cc(C)c1Nc1nccc2c1cnn2CC(=O)N(C)C [Compound 64, 2-[4-[2,6-Dimethyl-4-(trifluoromethyl)anilino]pyrazolo[4,3-c]pyridin-1-yl]-N,N-dimethyl-acetamide] | 234 | 78 | 196.5 | 42.7 | 101 | – | – | – | – | – | –
Cc1ccnc(C(C)C)c1Nc1nccc2c1cnn2CC(=O)N(C)C [Compound 65, 2-[4-[(2-Isopropyl-4-methyl-3-pyridyl)amino]pyrazolo[4,3-c]pyridin-1-yl]-N,N-dimethyl-acetamide] | > 1000 | 24 | 211.5 | 174 | 97 | – | – | – | – | – | –
CCCCn1ncc2c(Nc3c(Cl)cccc3Cl)nccc21 [Compound 66, 1-Butyl-N-(2,6-dichlorophenyl)pyrazolo[4,3-c]pyridin-4-amine] | > 1000 | 45 | 144.7 | 85.1 | 104 | – | – | – | – | – | –
Cc1cc(C(F)(F)F)cc(C)c1Nc1nccc2c1ncn2-c1ncc(F)cn1 [Compound 69] | – | 6 | 198.2 | – | 80 | <6 | 6.14 | 6.14 | – | – | –
Cc1cc(C(F)(F)F)cc(C)c1Nc1nccc2c1ncn2CCC(=O)N(C)C [Compound 70] | – | 7 | 194.9 | – | 7 | <6 | <6 | <5 | – | – | –
Cc1cc(C(F)(F)F)cc(C)c1Nc1nccc2c1ncn2C(C)(C)C(=O)N(C)C [Compound 71] | – | 27 | 260.1 | – | 6 | <6 | <6 | <5 | – | – | –
Cc1cc(C(F)(F)F)cc(C)c1Nc1nccc2c1ncn2C(C)C(=O)N(C)C (stereo not shown) [Compound 72] | – | 2 | 199.9 | – | 92 | <6 | <6 | 6.26 | – | – | –
Cc1cc(C(F)(F)F)cc(C)c1Nc1nccc2c1ncn2C1CCCCO1 (stereo not shown) [Compound 73] | – | 42 | 169.8 | – | 100 | <6 | 6.42 | 6.77 | 6.91 | – | –
COCCn1cnc2c(Nc3c(C)cc(C(F)(F)F)cc3C)nccc21 [Compound 74] | – | 6 | 161.5 | – | 83 | <6 | <6 | 5.64 | – | – | –
Cc1cc(C(F)(F)F)cc(C)c1Nc1ncc(C2CC2)c2c1ncn2CC(=O)N(C)C [Compound 75] | – | 22 | 246.7 | – | 97 | <6 | – | 6.28 | – | – | –
Cc1cc(C(F)(F)F)cc(C)c1Nc1nccc2c1ncn2CC(=O)N(C)CC(F)(F)F [Compound 77] | – | 67 | 228.3 | – | 103 | 6.37 | – | 7.23 | – | – | –
Cc1cc(F)c(F)c(C)c1Nc1nccc2c1ncn2CC(=O)N(C)C [Compound 78] | – | – | 198.1 | – | – | – | – | – | – | 427 | 21.4
Cc1cc(F)c(F)c(C)c1Nc1nccc2c1ncn2CC(=O)N1CCC1 [Compound 79] | – | – | 214.8 | – | – | – | – | – | – | > 1000 | 251
Cc1cc(Cn2cnc3c(Nc4c(C)cc(C(F)(F)F)cc4C)nccc32)no1 [Compound 80] | – | 94 | 164.7 | 8.91 | 104 | – | – | – | – | – | –
Cc1cc(C(F)(F)F)cc(C)c1Nc1ncc(C)c2c1cnn2CC(=O)N(C)C [Compound 81, 2-(4-((2,6-Dimethyl-4-(trifluoromethyl)phenyl)amino)-7-methyl-1H-pyrazolo[4,3-c]pyridin-1-yl)-N,N-dimethylacetamide] | 537 | 66 | 211.6 | 69.2 | 100 | – | – | – | – | 151 | –
Cc1cc(C(F)(F)F)cc(C)c1Nc1nccc2c1ncn2-c1cn(C)cn1 [Compound 82, N-(2,6-dimethyl-4-(trifluoromethyl)phenyl)-1-(1-methyl-1H-imidazol-4-yl)-1H-imidazo[4,5-c]pyridin-4-amine] | – | – | 184.8 | 174 | 97 | – | – | – | – | > 1000 | 170
